# Laboratory results taken from US7241794B2, “Nonnucleoside reverse transcriptase inhibitors” (RochePalo Alto LLC, priority 2003, dated 2007).
# Key:
# HIV-1 RT = HIV-1 RT (Human immunodeficiency virus type 1 group M subtype B, UniProt P03366); assay: HIV Reverse Transcriptase Assay: Inhibitor IC50 Determination; assay type: biochemical; settings: purified recombinant enzyme, poly(rA)/oligo(dT)16 template-primer; read-out: IC50(μM) RTI
# Description: HIV Reverse Transcriptase Assay: Inhibitor IC50 Determination
# HIV-1 RT assay was carried out in 96-well Millipore MultiScreen MADVNOB50 plates using purified recombinant enzyme and a poly(rA)/oligo(dT)16 template-primer in a total volume of 50 μL. The assay constituents were 50 mM Tris/HCl, 50 mM NaCl, 1 mM EDTA, 6 mM MgCl2, 5 μM dTTP, 0.15 μCi [^3H] dTTP, 5 μg/ml poly (rA) pre annealed to 2.5 μg/ml oligo (dT)16 and a range of inhibitor concentrations in a final concentration of 10% DMSO. Reactions were initiated by adding 4 nM HIV-1 RT and after incubation at 37° C. for 30 min, they were stopped by the addition of 50 μl ice cold 20% TCA and allowed to precipitate at 4° C. for 30 min. The precipitates were collected by applying vacuum to the plate and sequentially washing with 3×200 μl of 10% TCA and 2×200 μl 70% EtOH. Finally, the plates were dried and radioactivity counted in a Packard TopCounter after the addition of 25 μl scintillation fluid per well. IC50'swere calculated by plotting % inhibition versus log10 inhibitor concentrations. Representative IC50 data has been included in Table 2.
# [1] = test system: HXB2-strain of HIV in MT4 cells; assay: Antiviral assay: protection of HIV-infected MT4 cells from cell death (MTT); assay type: cell-based; settings: Human immunodeficiency virus 1, 120 h, MT4 cells infected with HXB2-strain of HIV, 5 days
# Description: Anti-HIV antiviral activity was assessed using an adaptation of the method of Pauwels et al. {Pauwels et al., 1988, J Virol Methods 20:309-321 }. The method is based on the ability of compounds to protect HIV-infected T lymphoblastoid cells (MT4 cells) from cell-death mediated by the infection. The endpoint of the assay was calculated as the concentration of compound at which the cell viability of the culture was preserved by 50% (‘50% inhibitory concentration’, IC50). The cell viability of a culture was determined by the uptake of soluble, yellow 3-[4,5-dimethylthiazol-2-yl]-2,5-diphenyltetrazolium bromide (MTT) and its reduction to a purple insoluble formazan salt. After solubilization, spectrophotometric methods were employed to measure the amount of formazan product. […]
# A fresh solution of 5 mg/mL MTT was prepared in 0.01 M phosphate buffered saline, pH 7.2 and 20 microliters added to each culture. […] When the formazan deposit was fully solubilized by further mixing, the absorbance (OD) of the cultures was measured at 540 nm and 690 nm wavelength (690 nm readings were used as blanks for artifacts between wells). The percent protection for each treated culture was then calculated from the equation: […]
Structure (SMILES),IC50 (HIV-1 RT) [µM],IC50 [1] [µM],melting point [°C]
"CCc1c(CO)nn(CC)c1Oc1cc(Cl)cc(Cl)c1 [Cpd 17, [5-(3,5-Dichloro-phenoxy)-1,4-diethyl-1H-pyrazol-3-yl]-methanol]",1.66,0.0401,–
"CCCc1c(CO)nn(CC)c1Oc1cc(Cl)cc(Cl)c1 [Cpd 22, [5-(3,5-Dichloro-phenoxy)-1-ethyl-4-propyl-1H-pyrazol-3-yl]-methanol]",1.56,–,–
"CCc1c(CCO)nn(C(C)C)c1Oc1cc(Cl)cc(Cl)c1 [Cpd 36, 2-[5-(3,5-Dichloro-phenoxy)-4-ethyl-1-isopropyl-1H-pyrazol-3-yl]-ethanol]",0.0383,–,–
"CCc1c(CNC=O)nn(C(C)C)c1Oc1cc(Cl)cc(Cl)c1 [Cpd 40, N-[5-(3,5-Dichloro-phenoxy)-4-ethyl-1-isopropyl-1H-pyrazol-3-ylmethyl]-formamide]",0.648,–,–
"CCc1c(CCN)nn(C(C)C)c1Oc1cc(Cl)cc(Cl)c1 [Cpd 48, 2-[5-(3,5-Dichloro-phenoxy)-4-ethyl-1-isopropyl-1H-pyrazol-3-yl]-ethylamine]",1.07,–,–
"CCn1nc(CCO)c(Cc2ccncc2)c1Oc1cc(Cl)cc(Cl)c1 [Cpd 85, 2-[5-(3,5-Dichloro-phenoxy)-1-ethyl-4-pyridin-4-ylmethyl-1H-pyrazol-3-yl]-ethanol]",–,–,103 to 105.8
"CCc1c(CC(=O)Nc2ccccc2)nn(CC)c1Oc1cc(Cl)cc(Cl)c1 [Cpd 86, 2-[5-(3,5-Dichloro-phenoxy)-1,4-iethyl-1H-pyrazol-3-yl]-N-phenyl-acetamide]",–,–,112.2 to 115.9
"CCc1c(CC(=O)Nc2ccccc2)nn(C(C)C)c1Oc1cc(Cl)cc(Cl)c1 [Cpd 87, 2-[5-(3,5-Dichloro-phenoxy)-4-ethyl-1-isopropyl-1H-pyrazol-3-yl]-N-phenyl-acetamide]",–,–,118.9 to 120.9
"CCc1c(Cc2ncc[nH]2)nn(CC)c1Oc1cc(Cl)cc(Cl)c1 [Cpd 88, 5-(3,5-Dichloro-phenoxy)-1,4-diethyl-3-(1H-imidazol-2-ylmethyl)-1H-pyrazole]",–,–,145 to 148
"CCc1c(Cc2cnc[nH]2)nn(CC)c1Oc1cc(Cl)cc(Cl)c1 [Cpd 90, 5-(3,5-Dichloro-phenoxy)-1,4-diethyl-3-(3H-imidazol-4-ylmethyl)-1H-pyrazole]",–,–,142 to 145.2
